According to patent US20180186742A1, “PICOLINAMIDES AS FUNGICIDES” (Dow AgroSciences LLC, priority 2017, published 2018):
Like-named read-outs stand apart in the source and are kept apart here.

What was measured:
[1] = system: Zymoseptoria tritici; experiment: Leaf blotch of wheat (SEPTTR), disease control on wheat seedlings; type: in vivo; details: high volume application at 100 ppm
Method: Technical grades of materials were dissolved in acetone, which were then mixed with nine volumes of water containing 110 ppm Triton X-100. The fungicide solutions were applied onto wheat seedlings using an automated booth sprayer to run-off. All sprayed plants were allowed to air dry prior to further handling. All fungicides were evaluated using the aforementioned method for their activity vs. all target diseases, unless stated otherwise. Wheat leaf blotch and brown rust activity were also evaluated using track spray applications, in which case the fungicides were formulated as EC formulations, containing 0.1% Trycol 5941 in the spray solutions. Wheat plants (variety Yuma) were grown from seed in a greenhouse in 50% mineral soil/50% soil-less Metro mix until the first leaf was fully emerged, with 7-10 seedlings per pot. These plants were inoculated with an aqueous spore suspension of Zymoseptoria tritici either prior to or after fungicide treatments. After inoculation the plants were kept in 100% relative humidity (one day in a dark dew chamber followed by two to three days in a lighted dew chamber at 20° C.) to permit spores to germinate and infect the leaf. The plants were then transferred to a greenhouse set at 20° C. for disease to develop. When disease symptoms were fully expressed on the 1st leaves of untreated plants, infection levels were assessed on a scale of 0 to 100 percent disease severity. Percent disease control was calculated using the ratio of disease severity on treated plants relative to untreated plants.

[2] = system: Puccinia triticina; experiment: Wheat brown rust (PUCCRT), disease control on wheat seedlings; type: in vivo; details: high volume application at 100 ppm
Method: Technical grades of materials were dissolved in acetone, which were then mixed with nine volumes of water containing 110 ppm Triton X-100. The fungicide solutions were applied onto wheat seedlings using an automated booth sprayer to run-off. All sprayed plants were allowed to air dry prior to further handling. All fungicides were evaluated using the aforementioned method for their activity vs. all target diseases, unless stated otherwise. Wheat leaf blotch and brown rust activity were also evaluated using track spray applications, in which case the fungicides were formulated as EC formulations, containing 0.1% Trycol 5941 in the spray solutions. Wheat plants (variety Yuma) were grown from seed in a greenhouse in 50% mineral soil/50% soil-less Metro mix until the first leaf was fully emerged, with 7-10 seedlings per pot. These plants were inoculated with an aqueous spore suspension of Puccinia triticina either prior to or after fungicide treatments. After inoculation the plants were kept in a dark dew room at 22° C. with 100% relative humidity overnight to permit spores to germinate and infect the leaf. The plants were then transferred to a greenhouse set at 24° C. for disease to develop. Fungicide formulation, application and disease assessment followed the procedures as described in the Example A.

[3] = 24 h, 1 Day Protectant, read-out: SEPTTR disease control, 1DP, HV activity
[4] = 72 h, 3 Day Curative, read-out: SEPTTR disease control, 3DC, HV activity
[5] = 24 h, 1 Day Protectant, read-out: PUCCRT disease control, 1DP, HV activity
[6] = 72 h, 3 Day Curative, read-out: PUCCRT disease control, 3DC, HV activity

SMILES	pest or weed control at 100 ppm [1, 3] [%]	pest or weed control at 100 ppm [1, 4] [%]	pest or weed control at 100 ppm [2, 5] [%]	pest or weed control at 100 ppm [2, 6] [%]
COc1ccnc(C(=O)N[C@@H](C)C(=O)O[C@@H](C)[C@@H](c2ccccc2)C(C)C)c1O [Compound 105]	< 80	< 80	> 80	< 0
COc1ccnc(C(=O)N[C@@H](C)C(=O)O[C@@H](C)[C@@H](c2ccccc2)C2CCCC2)c1O [Compound 106]	< 0	< 0	< 80	< 0
CCC(CC)[C@@H](c1ccccc1)C(C)OC(=O)[C@H](C)NC(=O)c1nccc(OC)c1O (stereo partly drawn) [Compound 112]	> 80	> 80	> 80	> 80
COc1ccnc(C(=O)N[C@@H](C)C(=O)OC(C)[C@H](c2ccccc2)C2CCCC2)c1O (stereo partly drawn) [Compound 113]	> 80	> 80	> 80	> 80
COc1ccnc(C(=S)N[C@@H](C)C(=O)OC(C)[C@H](c2ccccc2)C2CCCC2)c1O (stereo partly drawn) [Compound 114]	> 80	< 80	> 80	< 80
COc1ccnc(C(=S)N[C@@H](C)C(=O)O[C@@H](C)[C@@H](c2ccccc2)C2CCCC2)c1O [Compound 115]	< 80	< 0	< 0	< 0
COc1ccnc(C(=O)N[C@@H](C)C(=O)O[C@@H](C)[C@@H](c2ccc(F)cc2C)C(C)C)c1O [Compound 116]	< 0	< 80	> 80	< 0
CCC(CC)[C@H](c1ccc(F)cc1C)[C@H](C)OC(=O)[C@H](C)NC(=O)c1nccc(OC)c1O [Compound 117]	> 80	> 80	> 80	< 0
COc1ccnc(C(=O)N[C@@H](C)C(=O)O[C@@H](C)[C@@H](c2ccc(F)cc2C)C2CCCC2)c1O [Compound 118]	< 80	< 80	> 80	< 80
COc1ccnc(C(=O)N[C@@H](C)C(=O)O[C@@H](C)[C@@H](c2ccc(F)cc2C)C2CCCCC2)c1O [Compound 119]	> 80	> 80	> 80	< 80
CCC(C)[C@H](c1ccc(F)cc1C)[C@H](C)OC(=O)[C@H](C)NC(=O)c1nccc(OC)c1O (stereo partly drawn) [Compound 120]	< 0	< 80	> 80	< 0
COc1ccnc(C(=O)N[C@@H](C)C(=O)O[C@@H](C)[C@@H](c2ccc(F)cc2C)C2CCC2)c1O [Compound 121]	< 80	> 80	> 80	< 80
COc1ccnc(C(=O)N[C@@H](C)C(=O)O[C@@H](C)[C@H](c2ccc(F)cc2C)C2CCCC2)c1O [Compound 122]	> 80	< 80	> 80	> 80
COc1ccnc(C(=O)N[C@@H](C)C(=O)O[C@@H](C)[C@H](c2ccc(F)cc2C)C2CCCCC2)c1O [Compound 123]	> 80	> 80	> 80	> 80
COc1ccnc(C(=O)N[C@@H](C)C(=O)O[C@@H](C)[C@H](c2ccc(F)cc2C)C(C)C)c1O [Compound 124]	> 80	> 80	> 80	> 80
